# According to patent US20140128333A1, “Compounds, Compositions, and Methods for Decreasing Intestinal Glucose Uptake and Inducing Incretin Release” (MAQUI NEW LIFE S.A., priority 2012, published 2014):
# “Also recorded” adds a separate entry of the source.
# What was measured:
# [1] = molecular target: T1, SGLT-1 (Mus musculus, UniProt Q8C3K6); test: Ussing chamber: sodium-coupled D-glucose transport in mouse jejunum (short circuit current); conditions: 50 μM delphinidin on mucosal side
# T1 construct: Two sections of jejunum per animal were mounted in Ussing Chambers; from tissue; host or cells: jejunum of C57Bl/6J mice
# T1 sequence (Q8C3K6 1-665): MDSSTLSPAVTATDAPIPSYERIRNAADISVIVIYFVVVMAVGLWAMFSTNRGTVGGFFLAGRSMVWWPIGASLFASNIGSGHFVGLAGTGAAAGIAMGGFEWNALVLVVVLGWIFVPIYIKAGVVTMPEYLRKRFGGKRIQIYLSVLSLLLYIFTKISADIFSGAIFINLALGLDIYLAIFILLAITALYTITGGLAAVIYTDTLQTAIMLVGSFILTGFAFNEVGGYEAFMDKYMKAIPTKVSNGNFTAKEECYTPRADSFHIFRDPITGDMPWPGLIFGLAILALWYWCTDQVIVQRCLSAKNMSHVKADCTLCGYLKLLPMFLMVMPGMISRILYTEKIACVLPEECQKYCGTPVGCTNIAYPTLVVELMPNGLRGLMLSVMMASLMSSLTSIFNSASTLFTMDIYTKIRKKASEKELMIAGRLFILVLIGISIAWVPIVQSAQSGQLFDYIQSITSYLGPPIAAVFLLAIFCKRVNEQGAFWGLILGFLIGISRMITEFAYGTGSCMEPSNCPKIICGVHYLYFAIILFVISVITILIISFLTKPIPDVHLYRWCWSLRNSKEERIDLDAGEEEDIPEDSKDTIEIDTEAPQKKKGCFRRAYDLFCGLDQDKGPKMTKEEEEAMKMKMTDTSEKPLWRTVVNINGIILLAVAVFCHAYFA
# From the text: C57B1/6J mice were obtained from The Jackson Laboratory (Bar Harbor, Me., USA). The mice were maintained at the Specific Pathogen Free mouse facility of the Centro de Estudios Científicos (CECS), Valdivia, Chile and prior to the experiments they had free access to water and food. Animals were killed by cervical dislocation according to local Institutional Animal Care and Use Committee (IACUC) regulations. The jejunum was isolated, open longitudinally along the mesenteric border and rinsed with phosphate buffered saline (PBS).
# Two sections of jejunum per animal were mounted in Ussing Chambers and maintained in Ussing buffer (120 Mm NaCl, 25 mM NaHCO3, KH2PO4 3.3 mM, 0.8 mM K2HPO4, 1.2 mM MgCl2 and 1.2 mM CaCl2) supplemented with 10 mM D-glucose in the serosal side. […] The effect of delphinidin on sodium-coupled transport of glucose was determined by application of this molecule at a concentration of 50 μM in the mucosal side of the preparation. The transepithelial electrical potential difference (VM), defined as the potential side compared to serous mucus preparation was recorded continuously under current clamp configuration using a VCC MC2 amplifier (Physiological Instruments). The values of short circuit current (Isc) were calculated from experimental data using Ohm's law. The results are expressed as the intensity of the Isc (μA/cm^2). […]
# [2] = molecular target: T2, GPR40 receptor (Homo sapiens, UniProt O14842); test: Measurement of calcium influx in Fura-2/AM-loaded HT-29 cells; format: cell-based; conditions: 100 μM
# T2 construct: To assess and ensure the participation of GPR40 on calcium mobilization induced by delphinidin and cyanidin, Fura-2/AM-loaded HT-29 cells; endogenous in cells; host or cells: HT-29 cells
# Experimental: HT-29 cells were suspended in HBSS at a concentration of 20×10^6 cells/ml and incubated with 1 μM Fura-2/AM (Molecular Probes) for 30 min at 37° C. The cells were then washed twice, divided into 2×10^6 cells/ml aliquots and maintained at 4° C. in the dark until use. Cells were then pelleted by centrifugation at 1200 rpm for 6 min and re-suspended in 2 ml HEPES buffer [20 mM HEPES, pH 7.2; 140 mM NaCl; 10 mM glucose; 1 mM KCl; 1 mM Ca^2+ chloride (CaCl2); and 1 mM MgCl2].
# The influx of Ca^2+ was recorded as the 340:380 excitation ratio at 509 nm emission in a LS55 thermoregulated spectrofluorimeter (Perkin-Elmer, Mass., USA).
# [3] = test system: GLP-1 mRNA expression; test: GLP-1 mRNA expression in NCI-H716 cells by qRT-PCR; format: cell-based; conditions: delphinidin 10, 50 or 100 μM tested, increase at 50 and 100 μM, 24 h
# Experimental: Total RNA was isolated from […] cells using the RNeasy Plus Mini Kit according to the manufacturer's instructions. Approximately 1 μg of total RNA, 0.5 μg of oligo (dT)18 primer, 10 mM dNTPs and 200 U of reverse transcriptase were used for each cDNA synthesis reaction. PCR amplifications were performed using the Brilliant II SYBR Green QPCR Master Mix (Stratagene) according to the manufacturer's instructions. All reactions were carried out using an Mx300p thermal cycler (Stratagene, Calif., USA). GLP-1 specific primers were used.
# [4] = test system: GLP-1 production; test: GLP-1 production in NCI-H716 cells by flow cytometry; format: cell-based; conditions: 50 μM delphinidin, 48 hrs, Brefeldin A
# Experimental: After two washes in PBS, the cells were stained with mouse anti-GLP-1 antibody for 1 hr at 4° C. The cells were washed twice with PBS, incubated for 1 hr at 4° C. with anti-mouse Alexa 488 (1:200 dilution) and finally washed twice with PBS. The cells were assessed by flow cytometry on a FACSCanto II (Becton Dickinson).
# T2 sequence (O14842 whole entry): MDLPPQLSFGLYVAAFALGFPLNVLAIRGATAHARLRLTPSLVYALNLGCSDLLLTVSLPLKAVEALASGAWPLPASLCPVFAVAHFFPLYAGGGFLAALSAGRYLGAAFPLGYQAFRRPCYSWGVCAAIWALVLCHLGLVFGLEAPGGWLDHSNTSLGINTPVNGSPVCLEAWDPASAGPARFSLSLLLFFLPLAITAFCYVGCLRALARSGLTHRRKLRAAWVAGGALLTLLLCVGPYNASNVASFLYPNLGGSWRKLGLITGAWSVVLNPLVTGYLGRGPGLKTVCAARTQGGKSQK
smiles,measurement,setting,value
"Oc1cc(O)c2cc(O)c(-c3cc(O)c(O)c(O)c3)[o+]c2c1 [Delphinidin, 2-(3,4,5-trihydroxyphenyl)chromenylium-3,5,7-triol]",decrease of sodium current (Isc) induced by 10 mM D-glucose / inhibition of glucose transport by jejunal mucosa,[1]; n=4,about 40%
same,decrease of sodium current (Isc) induced by 10 mM D-glucose / inhibition of glucose transport by jejunal mucosa,"[1]; n=4, listed as delphinidin",approximately 60%
same,calcium fluxes (340/380 ratio) in HT-29 cells,[2],induces calcium fluxes
same,expression of GLP-1 mRNA with respect to control,[3],induces; also recorded: increased
same,amount of GLP-1 compared to control cells,[4],induced an increase
